Entries after “also recorded” stand apart in the source; their conditions may differ.
Tests used:
[1] = system: TGFβ gene expression; assay: RT-PCR for TGFβ gene expression in kidney graft (Example 1); assay type: in vivo, rat; details: 10 and 20 mg/kg PO day 0-9; day 90 after grafting; vs untreated allograft control
Protocol: Inbred male Lewis rats (LEW) (RT1^I), weighing 250-300 g, were used as kidney transplantation recipients. Inbred male LEW and Fisher (F344) (RT1^IvI), weighing 250-350 g, were used as isograft and allograft donor rats, respectively. Kidney transplantation was performed using the modified technique of Fisher and Lee. [Fisher et al., Surgery, 58:904-914, 1965] Survival of kidney transplant was measured as time of recipient rat survival. Blood and 24 hr urine samples were collected once a week for plasma creatinine, proteinuria, and the measurement of antibody titer against donor glomeruli basement membrane protein (GBM). Kidney grafts were harvested on the 90th day posttranspalantation and subjected to histology and reverse transcriptase-polymerase chain reaction (RT-PCR) analysis. The compound (I), at doses of 10 mg/kg and 20 mg/kg were administered orally to recipient rats daily from day 0 to day 9 after transplantation. Control isograft and allograft recipients received no drug after transplantation. TGFβ has been considered to play a crucial role for causing chronic allograft rejection. Kidney graft tissues harvested from recipients on day 90th after transplantation were subjected to RT-PCR for TGFβ gene expression. Total RNA was extracted from transplanted kidney tissues by TRIZOL. […]

[2] = system: F344 kidney allograft in LEW recipient rats; assay: Kidney graft histology under rescue treatment, modified Banff criteria (Example 3); assay type: in vivo, rat
Protocol: The rats and kidney transplantation methods described in Example 1 were used. […] The isograft and untreated allograft served as control groups. Blood and urine samples were collected once a week from recipients with kidney grafts described in Example 1 for measuring their plasma creatinine and proteinuria. Plasma creatinine was tested by Sigma Creatinine Kit and proteinuria by Bio-Rad Protein assay.
Using the methods described in Example 1, histological changes of chronic allograft rejection under rescue treatment of the compound (I) were analyzed. Histological sections were blindly evaluated by two histologists and scored semiquantitatively based on modified Banff' criteria for transplant pathology.

[3] = 20 mg/kg for 3 weeks during ongoing chronic rejection, vs untreated allograft control
[4] = rescue, From day 40-70 (20 mg/kg for 3 weeks), one line per rat

SMILES: C#CCC/C(O)=C(\C#N)C(=O)Nc1ccc(C(F)(F)F)cc1 [Compound (I), (2Z)-2-cyano-3-hydroxy-N-[4-(trifluoromethyl)phenyl]-2-hepten-6-ynamide]
- TGFβ gene expression (mRNA) in kidney graft [1]: inhibited TGFβ gene expression in a dose-dependent manner
- approximate cumulative reduction in Banff score: fibro-intimal hyperplasia [2, 3]: ~53%
- approximate cumulative reduction in Banff score: glomerulitis [2, 3]: ~38%
- approximate cumulative reduction in Banff score: interstitial inflammation [2, 3]: ~50%
- approximate cumulative reduction in Banff score: mesangiolysis [2, 3]: ~33%
- approximate cumulative reduction in Banff score: transplant glomerulopathy [2, 3]: ~89%
- approximate cumulative reduction in Banff score: tubular atrophy [2, 3]: ~42%
- approximate cumulative reduction in Banff score: tubulitis [2, 3]: ~70%
- approximate cumulative reduction in Banff score: vasculitis [2, 3]: ~92%
- Banff grade: Fibro-intimal Hyperplasia [2, 4]: ++ ((++):Grade 2, Moderate); also recorded: − ((−):Grade 0, Normal)
- Banff grade: Glomerulitis [2, 4]: + ((+):Grade 1, Mild); also recorded: − ((−):Grade 0, Normal); also recorded: ++ ((++):Grade 2, Moderate)
- Banff grade: Glomerulosclerosis [2, 4]: − ((−):Grade 0, Normal); also recorded: + ((+):Grade 1, Mild)
- Banff grade: Inflammation [2, 4]: + ((+):Grade 1, Mild); also recorded: ++ ((++):Grade 2, Moderate)
- Banff grade: Mesangiolysis [2, 4]: − ((−):Grade 0, Normal); also recorded: + ((+):Grade 1, Mild)
- Banff grade: Transplant Glomerulopathy [2, 4]: − ((−):Grade 0, Normal); also recorded: + ((+):Grade 1, Mild)
- Banff grade: Tubular Atrophy [2, 4]: − ((−):Grade 0, Normal); also recorded: + ((+):Grade 1, Mild)
- Banff grade: Tubulitis [2, 4]: − ((−):Grade 0, Normal)
- Banff grade: Vasculitis [2, 4]: +++ ((+++):Grade 3, Severe); also recorded: + ((+):Grade 1, Mild)

From patent US20060211725A1, “Use” (Astellas Pharma Inc., priority 2002, published 2006)
